Reference: patent publication US12427189B2, “Vaccine comprising epitope of heat shock protein, and use thereof” (ASTON SCI. CO., LTD., priority 2018, dated 2025)

How the values were obtained:
human PBMCs = assay: IFN-γ and IL-10 ELISPOT screen of HSP90 peptides in human PBMCs; assay type: cell-based; settings: human PBMCs from 10 volunteer donors
Description: Serum samples were obtained after written consent, from 25 HER2 positive breast cancer patient, and 25 volunteer donors at the Korea University Anam Hospital (Approval number: 2016AN0090). All sera were aliquoted and stored at −80° C. For human T cell response studies, peripheral blood mononuclear cells (PBMC) were obtained after informed consent, from 10 breast cancer patients, and 10 volunteer donors. Cells were ficolled and cryopreserved as previously described (Guy C T, et al. (1992) Expression of the neu protooncogene in the mammary epithelium of transgenic mice induces metastatic disease. Proceedings of the National Academy of Sciences of the United States of America 89(22):10578-10582). PBMC samples were obtained at the General Clinical Research Center Facility at the University of Washington (Approval number: NIH MO1-RR-00037)
(§1) Color development was stopped by washing under tap water.
This study profiled the peptide sequences with the highest recognition of HSP90 peptide and MHC class II peptide binding by a scoring system combining multiple MHC class II peptide binding algorithms. FIG. 2 depicts the entire HSP90 peptide sequence and identified immunogenic “hotspots”. Among them, 11 peptides with the highest scores in the binding affinity scoring system were selected. The selected 11 15-mer HSP90 peptides (Table 2) were screened for T helper (Th)1 or Th2 immunity in human PBMCs from 10 volunteer donors by IFN-γ ELISPOT assay using as a representative Th1 cytokine, IFN-γ, and a Th2 cytokine, Interleukine-10 (IL-10).

LR-MMC cells [1] = settings: per 10 high-power field, IHC
LR-MMC cells [2] = assay: Lapatinib treatment of LR-MMC tumor-bearing mice; assay type: in vivo, neu-transgenic mice; settings: lapatinib 75 mg/kg oral gavage 5 times weekly
Description: (§2) To establishment lapatinib-resistant mouse model, MMC and lapatinib-resistant MMC cells (1×106) were injected flank with s.c in neu-transgenic mice.

MMC cells [3] = assay: Cell viability MTT assay, MMC cells; assay type: cell-based, mouse
Source text: (§3) Neu-transgenic mice [strain: FVB/N-Tg(MMTVneu)202Mul] were obtained from the Jackson Laboratory (Bar Harbor, ME). These mice harbor non-mutated, non-activated rat neu under the control of the mouse mammary tumor virus (MMTV) promoter/enhancer. The neu transgene is expressed at low levels in normal mammary epithelium, salivary gland, and lung. Until the age of eight month, 35% of female neu-transgenic mice spontaneously develop mammary carcinomas that display high neu-expression levels. Mouse mammary carcinoma (MMC) cell line was established from a spontaneous tumor in neu-transgenic mouse. MMC cells were maintained in RPMI-1640 medium (ThermoFisher scientific, Utah, USA) supplemented with 10% fetal bovine serum, 100 units/ml penicillin, […] streptomycin and 2 mM L-glutamine, and were incubated in a humidified 37° C. incubator with 5% CO2. Lapatinib was purchased from LC laboratories (L-4899, MA, USA). […]
(§4) Cells were seeded at a density of 1×10^5 cells in 6-well plates. […] Cell viability was quantitatively analysed using the 3-[4,5-dimethylthiazol-2-yl]-2,5-diphenyltetrazolium (MTT) assay. […] The absorbance of the converted MTT dye was measured at 540 nm using an IMARK™ microplate reader (Bio-Rad Laboratories). Cell viability was expressed as the relative percentage compared to untreated cells; experimental error was also calculated. […] The percent of cell survival was calculated using […] […]

MMC cells [4] = assay: Lapatinib treatment of MMC tumor-bearing mice; assay type: in vivo, neu-transgenic mice; settings: day 34, lapatinib 75 mg/kg oral gavage 5 times weekly
Description: as §2

LR-MMC cells [5] = assay: Cell viability MTT assay, lapatinib-resistant MMC cells; assay type: cell-based, mouse
Source text: as §3, §4

Splenocytes = assay: Immunogenicity of HSP90 peptides in immunized FVB mice, IFN-γ ELISPOT of splenocytes; assay type: in vivo; settings: mice immunized s.c. 100 μg single peptide in CFA/IFA, 3 times; compared with control
Description: To test immunogenicity of the selected peptides in murine model, six to eight-week-old female FVB mice were obtained from Koatech (Gyeonggi, Korea). The mice were immunized subcutaneous (s.c) injection with 100 μg of respective HSP90 peptides of SEQ ID NOs: 1, 2, and 5-14 or Phosphate Buffered Saline (PBS) as a mixture in complete Freund's adjuvant (CFA; F5881, Sigma, MO, USA)/incomplete Freund's adjuvant (IFA; F5506, Sigma). Three immunizations were given 10 days apart. Ten days after the third vaccination, spleen and serum was harvested from each mouse.
as §1

[6] = tested on: mouse mammary carcinoma (MMC) cells; assay: Survival analysis of HSP90 peptides and STING agonist in MMC tumor-bearing mice; assay type: in vivo, neu-transgenic mice; settings: monitored until 90 days after tumor implantation; tumor >2,000 mm^3 considered dead
Source text: (§5) To evaluate effects of the combination therapeutic with HSP90 peptides and STING agonist (tlrl-dmx, InvivoGen, CA, USA), MMC cells (5×10^5) were implanted with s.c in neu-transgenic mice. […] Three immunizations were given 10 days apart. 15 days after the third vaccination, spleen, tumor and serum was harvested in mice. To evaluate survival analysis of the combination effects with HSP90 peptides and STING agonist, mice were monitored two time per week until 90 days following tumor implantation and when tumor reached a size greater than 2,000 mm^3, mice were considered dead.

[7] = tested on: mouse mammary carcinoma (MMC) cells; assay: Combination of HSP90 peptides and STING agonist in MMC tumor-bearing mice; assay type: in vivo, neu-transgenic mice
Source text: as §5
The levels of HSP90 and HER2 ECD were evaluated by ELISA in the serum of HER2 positive breast cancer patients and mice. Briefly, HSP90 (ADI-SPP-776, Enzo Life Science, NY, USA) and HER2 ECD (YCP5341, Speed Biosystems) recombinant proteins were coated a 96-well microplate with 50 μL per well of the diluted concentration of 20 μg/mL in carbonate buffer. Standard was coated with IgG dilution of human and mouse to serial concentration (0.64˜0.005 μg/mL). […] Samples (200 μL) were added to the wells and incubated overnight at 4° C. […] The optical density of each well at 450 nm was determined using an IMARKTM™ microplate reader (Bio-Rad Laboratories, Hercules, CA, USA). […]

With “SVKDLVILLYETALL (HSP90 p780-794) [HSP90 15-mer peptide]” the “Th1 and Th2 immune responses (IFN-γ and IL-10 ELISPOT)” value (“Th1 and Th2 immune responses” below) (human PBMCs) was “weak Th1 and Th2 immune responses”.
In the case of “LYKDLQPFILLRLLM (HSP90 p109-123) [HSP90 15-mer peptide]”, the “Th1 and Th2 immune responses” value (human PBMCs) is reported as “strong Th1 and Th2 immune responses”.
CS(=O)(=O)CCNCc1ccc(-c2ccc3ncnc(Nc4ccc(OCc5cccc(F)c5)c(Cl)c4)c3c2)o1 [lapatinib] was tested, and the “infiltrated CD8+ T cells in tumor (Mean median)” value (LR-MMC cells [1]) was 6.6 counts, the “mean tumor volume (mean±SD)” value (LR-MMC cells [2]) was 1212±523 mm^3 and the “sensitivity after lapatinib treatment” value (MMC cells [3]; MMC cells) was “sensitive in a dose-dependent manner”. The IC50 (MMC cells [3]; Mus musculus, parent MMC cells) was 0.076 µM, the “mean tumor volume (mean±SD)” value (MMC cells [4]) was 1711±397 mm^3 and the apoptosis (LR-MMC cells [5]; LR-MMC cells compared with MMC cells) was “did not induce significant apoptosis”. The IC50 (LR-MMC cells [5]; Mus musculus, LR-MMC cells) was 0.39 µM.
For “LYVRRVFIMDNCEEL (HSP90 p485-499) [HSP90 15-mer peptide]”, the “Th1 and Th2 immune responses” value (human PBMCs) was “predominantly Th1 immune responses” and the “antigen-specific T cell response (IFN-γ ELISPOT)” value (shortened to “antigen-specific T cell response”) (Splenocytes) was “significantly higher”.
For “IVKKHSQFIGYPITL (HSP90 p328-342) [HSP90 15-mer peptide]”, the “Th1 and Th2 immune responses” value (human PBMCs) was “strong Th1 and Th2 immune responses”.
In the case of Cc1ccc2c(=O)c3cccc(CC(=O)O)c3oc2c1C [STING agonist], the median survival [6] is reported as 79 days, the “mean tumor volume (mean±SD)” value ([7]; day 35, treatment from tumor >100 mm^3, 3 times) is reported as 647±66 mm^3 and the “expression levels of mouse HER2 ECD (ELISA)” value ([7]; serum) is reported as 89 µg/mL.
For “LEFRALLFVPRRAPF (HSP90 p457-471) [HSP90 15-mer peptide]”, the “Th1 and Th2 immune responses” value (human PBMCs) was “weak Th1 and Th2 immune responses” and the “antigen-specific T cell response” value (Splenocytes) was “significantly higher”.
For “TDTGEPMGRGTKVIL (HSP90 p296-310) [HSP90 15-mer peptide]”, the “Th1 and Th2 immune responses” value (human PBMCs) was “weak Th1 and Th2 immune responses”.
With “QSKILKVIRKNLVKK (HSP90 p527-541) [HSP90 15-mer peptide]” the “Th1 and Th2 immune responses” value (human PBMCs) was “predominantly Th1 immune responses” and the “antigen-specific T cell response” value (Splenocytes) was “significantly higher”.
With “QFGVGFYSAYLVAEK (HSP90 p255-269) [HSP90 15-mer peptide]” the “Th1 and Th2 immune responses” value (human PBMCs) was “weak Th1 and Th2 immune responses”.
“SELLRYYTSASGDEM (HSP90 p582-596) [HSP90 15-mer peptide]” was tested, and the “Th1 and Th2 immune responses” value (human PBMCs) was “weak Th1 and Th2 immune responses”.
With “YSNKEIFLRELISNS (HSP90 p160-174) [HSP90 15-mer peptide]” the “Th1 and Th2 immune responses” value (human PBMCs) was “weak Th1 and Th2 immune responses” and the “antigen-specific T cell response” value (Splenocytes) was “significantly higher”.
